US12649750B2, “Macrocyclic compounds, compositions, and methods of using thereof” (Sionna Therapeutics Inc., priority 2022, dated 2026)

Key:
[1] = target: T1, NBD1 (Homo sapiens, UniProt P13569); experiment: Aggregation analysis using differential static light scattering (DSLS), thermal stability of NBD1 (ΔTagg); format: binding; details: ΔTagg versus DMSO control, NBD1 0.2 mg/ml
T1 construct: Purified recombinant NBD1 was produced using previously described methods; made in house
Outline: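 Purified recombinant NBD1 at 0.2 mg/ml in 50 mM Tris-HCl, 150 mM NaCl, 5 mM MgCl2, 2 mM ATP, 2 mM DTT, pH 7.6, 1% glycerol, with compound, heated 1° C./min to 70° C. under light-scattering monitoring. Tagg taken at curve inflection; ΔTagg is compound Tagg minus mean DMSO-control Tagg, binned A (≤5° C.), B (>5-≤10° C.), C (>10-≤25° C.).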

[2] = target: T2, CFTR (Homo sapiens, UniProt P13569, DEL508-508); experiment: TECC24 AUC fold over DMSO @10 μM, CFTR-mediated transepithelial chloride transport in CF-HBE cells; format: cell-based; details: test agent AUC divided by DMSO vehicle AUC, primary CF-HBE cells, ΔF508 homozygous donor, 48 hours incubation
T2 construct: Primary human bronchial epithelial cells from a ΔF508 homozygous CF donor; host or cells: primary human bronchial epithelial cells (CF-HBE), ΔF508 homozygous donor
T2 sequence (P13569 with tags, fused parts or gaps DEL508-508): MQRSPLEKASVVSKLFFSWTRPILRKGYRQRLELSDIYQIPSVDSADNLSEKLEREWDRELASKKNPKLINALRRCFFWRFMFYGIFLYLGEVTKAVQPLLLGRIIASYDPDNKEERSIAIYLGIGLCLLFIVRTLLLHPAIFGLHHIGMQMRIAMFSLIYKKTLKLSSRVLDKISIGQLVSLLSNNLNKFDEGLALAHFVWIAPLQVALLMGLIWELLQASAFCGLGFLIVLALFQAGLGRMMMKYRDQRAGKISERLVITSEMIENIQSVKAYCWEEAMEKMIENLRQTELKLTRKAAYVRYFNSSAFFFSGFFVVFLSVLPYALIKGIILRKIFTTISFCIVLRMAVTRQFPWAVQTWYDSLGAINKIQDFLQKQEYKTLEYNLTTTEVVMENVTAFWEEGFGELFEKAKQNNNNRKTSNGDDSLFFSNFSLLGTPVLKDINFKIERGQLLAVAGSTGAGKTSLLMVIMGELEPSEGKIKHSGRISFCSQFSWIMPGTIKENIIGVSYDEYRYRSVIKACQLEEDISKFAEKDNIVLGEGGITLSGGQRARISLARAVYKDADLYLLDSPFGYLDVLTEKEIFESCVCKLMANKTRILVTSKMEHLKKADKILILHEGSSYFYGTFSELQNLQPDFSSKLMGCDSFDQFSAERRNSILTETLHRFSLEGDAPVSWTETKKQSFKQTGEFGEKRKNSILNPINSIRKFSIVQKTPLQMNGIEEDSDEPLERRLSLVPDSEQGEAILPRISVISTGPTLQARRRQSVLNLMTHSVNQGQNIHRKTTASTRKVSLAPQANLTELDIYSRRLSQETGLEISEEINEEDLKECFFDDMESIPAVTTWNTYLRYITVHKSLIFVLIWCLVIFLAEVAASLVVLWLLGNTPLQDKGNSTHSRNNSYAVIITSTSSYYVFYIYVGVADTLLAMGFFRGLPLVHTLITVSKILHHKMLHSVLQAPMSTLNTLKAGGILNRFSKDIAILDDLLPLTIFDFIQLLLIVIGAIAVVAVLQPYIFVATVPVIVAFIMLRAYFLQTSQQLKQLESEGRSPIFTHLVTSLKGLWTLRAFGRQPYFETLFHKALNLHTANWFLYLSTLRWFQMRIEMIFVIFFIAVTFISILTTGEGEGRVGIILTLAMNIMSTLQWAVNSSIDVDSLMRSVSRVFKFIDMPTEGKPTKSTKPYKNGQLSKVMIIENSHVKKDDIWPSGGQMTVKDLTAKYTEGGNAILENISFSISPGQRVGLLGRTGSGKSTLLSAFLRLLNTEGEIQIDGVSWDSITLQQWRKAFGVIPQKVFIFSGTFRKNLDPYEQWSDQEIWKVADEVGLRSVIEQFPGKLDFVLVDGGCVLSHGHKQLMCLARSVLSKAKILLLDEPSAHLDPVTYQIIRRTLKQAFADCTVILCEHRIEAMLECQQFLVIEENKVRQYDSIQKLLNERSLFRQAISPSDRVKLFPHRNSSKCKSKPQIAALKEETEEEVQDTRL
Outline: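 Primary ΔF508-homozygous CF bronchial epithelial cells on inserts were incubated 48 h at 36.5 °C with compound in IL-13-containing medium. VT and TEER were then recorded in current-clamp mode (pH 7.4 HEPES bath) with benzamil 10 μM, forskolin 10 μM, then CFTR inhibitor-172 20 μM. The IEQ AUC between forskolin and inhibitor was divided by vehicle AUC.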

T1 sequence (P13569 423-646 limits assumed): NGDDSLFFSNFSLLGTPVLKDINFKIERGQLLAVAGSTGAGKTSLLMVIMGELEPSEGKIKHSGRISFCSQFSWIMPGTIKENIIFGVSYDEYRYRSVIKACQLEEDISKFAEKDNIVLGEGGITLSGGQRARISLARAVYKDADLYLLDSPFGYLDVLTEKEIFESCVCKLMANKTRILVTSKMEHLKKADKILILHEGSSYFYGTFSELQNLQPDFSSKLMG

SMILES | DSLS 3D (100 μM ΔT) [1] | TECC (AUC, 10 μM) [2]
C[C@H](Cc1cccc([C@@]2(C)CCCC(C)(C)CS(=O)(=O)CCc3c(c(F)c(F)c4[nH]ccc34)Oc3ccnc(c3)-c3nc2nn3C)c1)C(=O)O [Compound 221, (2R)-3-[3-[(6R)-21,22-difluoro-3,6,10,10-tetramethyl-12,12-dioxo-24-oxa-12λ6-thia-3,4,19,28,30-pentazapentacyclo[23.3.1.12,5.015,23.016,20]triaconta-1(29),2(30),4,15,17,20,22,25,27-nonaen-6-yl]phenyl]-2-methyl-propanoic Acid] | C (a value greater than 10 °C and less than or equal to 25 °C is marked “C”) | B (a value between 12-20 is marked “B”)
Cn1nc2nc1-c1cc(ccn1)Oc1c(F)cc3[nH]ccc3c1CCS(=O)(=O)CC(C)(C)CCC[C@]2(C)c1cccc(CC(=O)O)c1 [Compound 226, 2-[3-[(6R)-22-Fluoro-3,6,10,10-tetramethyl-12,12-dioxo-24-oxa-12λ6-thia-3,4,19,28,30-pentazapentacyclo[23.3.1.12,5.015,23.016,20]triaconta-1(29),2(30),4,15,17,20,22,25,27-nonaen-6-yl]phenyl]acetic Acid] | C (a value greater than 10 °C and less than or equal to 25 °C is marked “C”) | C (a value between 20 and 80 is marked “C”)
Cn1nc2nc1-c1cc(ccn1)Oc1c(F)cc3[nH]ccc3c1CCS(=O)(=O)CC(C)(C)CCC[C@]2(C)c1cccc(CCO)c1 [Compound 227, 2-[3-[(6R)-22-Fluoro-3,6,10,10-tetramethyl-12,12-dioxo-24-oxa-12λ6-thia-3,4,19,28,30-pentazapentacyclo[23.3.1.12,5.015,23.016,20]triaconta-1(29),2(30),4,15,17,20,22,25,27-nonaen-6-yl]phenyl]ethanol] | C (a value greater than 10 °C and less than or equal to 25 °C is marked “C”) | B (a value between 12-20 is marked “B”)
C[C@@H](Cc1cccc([C@@]2(C)CCCC(C)(C)CS(=O)(=O)CCc3c(c(F)cc4[nH]ccc34)[S+]([O-])c3ccnc(c3)-c3nc2co3)c1)C(=O)O (stereo partly drawn) [Compound 229, (2S)-3-[3-[(6R)-22-Fluoro-6,10,10-trimethyl-12,12,24-trioxo-3-oxa-12λ6,24λ4-dithia-19,28,30-triazapentacyclo[23.3.1.12,5.015,23.016,20]triaconta-1(29),2(30),4,15,17,20,22,25,27-nonaen-6-yl]phenyl]-2-methyl-propanoic Acid] | C (a value greater than 10 °C and less than or equal to 25 °C is marked “C”) | C (a value between 20 and 80 is marked “C”)
C[C@H](Cc1cccc([C@@]2(C)CCCC(C)(C)CS(=O)(=O)CCc3c(c(F)cc4[nH]ccc34)[S+]([O-])c3ccnc(c3)-c3nc2nn3C)c1)C(=O)O (stereo partly drawn) [Compound 231, (2R)-3-[3-[(6R)-22-Fluoro-3,6,10,10-tetramethyl-12,12,24-trioxo-12λ6,24λ4-dithia-3,4,19,28,30-pentazapentacyclo[23.3.1.12,5.015,23.016,20]triaconta-1(29),2(30),4,15,17,20,22,25,27-nonaen-6-yl]phenyl]-2-methyl-propanoic Acid] | C (a value greater than 10 °C and less than or equal to 25 °C is marked “C”) | C (a value between 20 and 80 is marked “C”)
C[C@@H](Cc1cccc([C@@]2(C)CCCC(C)(C)CS(=O)(=O)CCc3c(c(F)cc4[nH]ccc34)Cc3ccnc(c3)-c3nc2nn3C)c1)C(=O)O [Compound 233, (2S)-3-[3-[(6R)-22-Fluoro-3,6,10,10-tetramethyl-12,12-dioxo-12λ6-thia-3,4,19,28,30-pentazapentacyclo[23.3.1.12,5.015,23.016,20]triaconta-1(29),2(30),4,15,17,20,22,25,27-nonaen-6-yl]phenyl]-2-methyl-propanoic Acid] | C (a value greater than 10 °C and less than or equal to 25 °C is marked “C”) | B (a value between 12-20 is marked “B”)
C[C@H](Cc1cccc([C@@]2(C)CCCC(C)(C)CS(=O)(=O)CCc3c(c(F)cc4[nH]ccc34)Cc3ccnc(c3)-c3nc2nn3C)c1)C(=O)O [Compound 234, (2R)-3-[3-[(6R)-22-fluoro-3,6,10,10-tetramethyl-12,12-dioxo-12λ6-thia-3,4,19,28,30-pentazapentacyclo[23.3.1.12,5.015,23.016,20]triaconta-1(29),2(30),4,15,17,20,22,25,27-nonaen-6-yl]phenyl]-2-methyl-propanoic Acid] | C (a value greater than 10 °C and less than or equal to 25 °C is marked “C”) | B (a value between 12-20 is marked “B”)
Cn1nc2nc1-c1cc(ccn1)C(=O)c1c(F)cc3[nH]ccc3c1CCS(=O)(=O)CC(C)(C)CCC[C@]2(C)c1cccc(CCC(=O)O)c1 [Compound 238, 3-[3-[(6R)-22-fluoro-3,6,10,10-tetramethyl-12,12,24-trioxo-12λ6-thia-3,4,19,28,30-pentazapentacyclo[23.3.1.12,5.015,23.016,20]triaconta-1(29),2(30),4,15,17,20,22,25,27-nonaen-6-yl]phenyl]propanoic acid] | C (a value greater than 10 °C and less than or equal to 25 °C is marked “C”) | A (a TECC value less than 12 is marked “A”)
C[C@@H](Cc1cccc([C@@]2(C)CCCC(C)(C)CS(=O)(=O)CCc3c(c(F)cc4[nH]ccc34)Sc3ccc(F)c(c3)-c3nc2cs3)c1)C(=O)O [Compound 240, (2S)-3-[3-[(6R)-22,28-difluoro-6,10,10-trimethyl-12,12-dioxo-3,12λ6,24-trithia-19,30-diazapentacyclo[23.3.1.12,5.015,23.016,20]triaconta-1(29),2(30),4,15,17,20,22,25,27-nonaen-6-yl]phenyl]-2-methyl-propanoic Acid] | B (a value above 5 °C and less than or equal to 10 °C is marked “B”) | A (a TECC value less than 12 is marked “A”)
C[C@@H](Cc1cccc([C@@]2(C)CCCC(C)(C)CS(=O)(=O)CCc3c(c(F)cc4[nH]ccc34)Sc3ccc(F)c(c3)-c3nc2nn3C)c1)C(=O)O [Compound 242, (2S)-3-[3-[(6R)-22,28-difluoro-3,6,10,10-tetramethyl-12,12-dioxo-12λ6,24-dithia-3,4,19,30-tetrazapentacyclo[23.3.1.12,5.015,23.016,20]triaconta-1(29),2(30),4,15,17,20,22,25,27-nonaen-6-yl]phenyl]-2-methyl-propanoic Acid] | C (a value greater than 10 °C and less than or equal to 25 °C is marked “C”) | C (a value between 20 and 80 is marked “C”)
C[C@@H](Cc1cccc([C@@]2(C)CCCC(C)(C)CS(=O)(=O)CCc3c(c(F)cc4[nH]ccc34)Oc3cncc(c3)-c3nc2nn3C)c1)C(=O)O [Compound 244, (2S)-3-[3-[(6R)-22-fluoro-3,6,10,10-tetramethyl-12,12-dioxo-24-oxa-12λ6-thia-3,4,19,27,30-pentazapentacyclo[23.3.1.12,5.015,23.016,20]triaconta-1(29),2(30),4,15(23),16(20),17,21,25,27-nonaen-6-yl]phenyl]-2-methyl-propanoic Acid] | C (a value greater than 10 °C and less than or equal to 25 °C is marked “C”) | C (a value between 20 and 80 is marked “C”)
C[C@@H](Cc1cccc([C@@]2(C)CCCC(C)(C)CS(=O)(=O)CCc3c(c(F)c(F)c4[nH]ccc34)Oc3ccc(F)c(c3)-c3nc2nn3C)c1)C(=O)O [Compound 245, (2S)-2-methyl-3-[3-[(6R)-21,22,28-trifluoro-3,6,10,10-tetramethyl-12,12-dioxo-24-oxa-12λ6-thia-3,4,19,30-tetrazapentacyclo[23.3.1.12,5.015,23.016,20]triaconta-1(29),2(30),4,15,17,20,22,25,27-nonaen-6-yl]phenyl]propanoic Acid] | C (a value greater than 10 °C and less than or equal to 25 °C is marked “C”) | C (a value between 20 and 80 is marked “C”)
Cn1nc2nc1-c1cc(ccn1)C(=O)c1c(F)cc3[nH]ccc3c1CCS(=O)(=O)CC(C)(C)CCC[C@]2(C)c1cccc(CC(=O)O)c1 [Compound 247, 2-[3-[(6R)-22-fluoro-3,6,10,10-tetramethyl-12,12,24-trioxo-12λ6-thia-3,4,19,28,30-pentazapentacyclo[23.3.1.12,5.015,23.016,20]triaconta-1(29),2(30),4,15,17,20,22,25,27-nonaen-6-yl]phenyl]acetic Acid] | C (a value greater than 10 °C and less than or equal to 25 °C is marked “C”) | C (a value between 20 and 80 is marked “C”)
Cn1nc2nc1-c1cc(ccn1)Sc1c(F)cc3[nH]ccc3c1CCS(=O)(=O)CC(C)(C)CCC[C@]2(C)c1cccc(CC(=O)O)c1 [Compound 251, 2-[3-[(6R)-22-Fluoro-3,6,10,10-tetramethyl-12,12-dioxo-12λ6,24-dithia-3,4,19,28,30-pentazapentacyclo[23.3.1.12,5.015,23.016,20]triaconta-1(29),2(30),4,15,17,20,22,25,27-nonaen-6-yl]phenyl]acetic Acid] | C (a value greater than 10 °C and less than or equal to 25 °C is marked “C”) | B (a value between 12-20 is marked “B”)
